Values joined by “and” are separate entries in the source; they are usually repeats but may differ in a detail not shown here. Equal entries are not always repeated. Where two headings read alike, the source gives them in different places. Marks after values point to notes of the source that are not given here.
Legend:
[1] = biological target: T1, Escherichia coli CTP synthetase (EcCTPS) (Escherichia coli, UniProt P0A7E5); assay: CTP synthesis assay; conditions: for Kd: best fit; for IC50^ox/IC50^red: ratio of oxidized to reduced form IC50, standard conditions; for apparent kcat at 2 μM EcCTPS: annealing at 40 μM EcCTPS; for EC50: EC50 (activation); for Ki: Ki (two-site model)
E277R EcCTPS = E277R EcCTPS (Escherichia coli, UniProt P0A7E5, E277R); assay: CTP synthesis assay, filament-blocking mutant E277R EcCTPS; assay type: biochemical
EcCTPS = EcCTPS (Escherichia coli, UniProt P0A7E5); assay: Ammonia-dependent CTP synthesis; assay type: biochemical; conditions: Figure S6
[2] = biological target: T1, Escherichia coli CTP synthetase (EcCTPS); conditions: read-out: IC50 (inhibition of CTP synthesis); higher GTP concentrations; cited from earlier work
[3] = tested on: CTPS glutamine hydrolysis; conditions: low concentrations (0–200 μM); cited from earlier work
[4] = IC50, standard: 200 nM EcCTPS, 1.5 mM ATP, 600 μM UTP, 10 mM glutamine, 200 μM GTP (unless GTP titrated), linear extrapolation
[5] = inhibitor alone, activating GTP (50 or 200 μM)
[6] = two ligands present (second inhibitor)
[7] = standard: 200 nM EcCTPS, 1.5 mM ATP, 600 μM UTP, 10 mM glutamine, 200 μM GTP (unless GTP titrated), linear extrapolation
[8] = 100 nM enzyme, other substrates saturating, 200 μM GTP
[9] = limiting substrate titrated, other substrates saturating, 200 μM GTP, 37 °C

Chain of E277R EcCTPS (P0A7E5 whole entry E277R): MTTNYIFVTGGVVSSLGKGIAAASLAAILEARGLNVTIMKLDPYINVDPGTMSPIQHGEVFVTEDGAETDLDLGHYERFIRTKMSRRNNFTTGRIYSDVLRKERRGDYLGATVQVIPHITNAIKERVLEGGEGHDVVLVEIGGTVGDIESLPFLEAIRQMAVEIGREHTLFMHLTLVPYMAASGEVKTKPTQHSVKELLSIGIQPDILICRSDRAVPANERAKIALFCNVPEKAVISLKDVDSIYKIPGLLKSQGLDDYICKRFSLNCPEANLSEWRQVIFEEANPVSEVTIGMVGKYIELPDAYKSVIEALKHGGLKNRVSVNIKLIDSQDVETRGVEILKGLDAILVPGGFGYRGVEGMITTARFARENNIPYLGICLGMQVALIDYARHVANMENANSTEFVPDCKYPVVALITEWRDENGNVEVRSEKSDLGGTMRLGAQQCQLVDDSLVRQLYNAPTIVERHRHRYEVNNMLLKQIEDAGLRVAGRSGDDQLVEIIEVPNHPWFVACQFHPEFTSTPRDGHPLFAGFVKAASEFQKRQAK
T1 sequence (P0A7E5 whole entry): as the sequence (P0A7E5 whole entry E277R) above, with R277E counted along it
Chain of EcCTPS (P0A7E5 whole entry): as the sequence (P0A7E5 whole entry E277R) above, with R277E counted along it

Question: With `Nc1ccn([C@@H]2O[C@H](COP(=O)(O)OP(=O)(O)OP(=O)(O)O)[C@@H](O)[C@H]2O)c(=O)n1` [CTP, cytidine-5’-triphosphate] as the compound, how does the inhibition at 750 µM [1] read?
Answer: The inhibition at 750 µM was 85%.

Question: What about the “limiting slope of Hill plot, high concentration range” value ([1]; 50 μM UTP, 100 nM EcCTPS) of the same compound?
Answer: The value was −1.9 ± 0.3.

Question: What about the “limiting slope of Hill plot, low concentration range” value ([1]; 50 μM UTP, 100 nM EcCTPS) of the same compound?
Answer: Its value is −0.6 ± 0.2.

Question: And the IC50 ([1]; IC50, 50 μM GTP, otherwise standard)?
Answer: The IC50 was 620 ± 30 µM.

Question: What about the IC50 ([1]; IC50, 500 μM GTP, otherwise standard) of the same compound?
Answer: The IC50 was 220 ± 60 µM.

Question: What about the IC50 [1, 4] of the same compound?
Answer: Its IC50 is ~370 µM and 370 µM.

Question: What about the Kd ([1]; K1 (four-site sequential binding model), standard conditions) of the same compound?
Answer: Its Kd is 446 µM.

Question: What about the Kd ([1]; K2 (four-site sequential binding model), standard conditions) of the same compound?
Answer: Its Kd is 2120 µM.

Question: What about the Kd ([1]; K3 (four-site sequential binding model), standard conditions) of the same compound?
Answer: The Kd was 1170 µM.

Question: What about the Kd ([1]; K4 (four-site sequential binding model), standard conditions) of the same compound?
Answer: Its Kd is 7.5 µM.

Question: What about the “increase of inhibition potency” value ([1]; by 500 μM NADH) of the same compound?
Answer: Its value is 2.3 fold.

Question: What about the IC50 ([1]; fit IC50 value (four-site sequential binding model), standard conditions) of the same compound?
Answer: Its IC50 is 385 µM.

Question: And the “K2/K1 (sequential binding model)” value [1, 5]?
Answer: The value was 4–40.

Question: And the “K3/K2 (sequential binding model)” value [1, 5]?
Answer: The value was 0.2–0.8.

Question: And the “IC50 relative to UTP concentration (fold lower)” value ([1]; saturating UTP (600 μM))?
Answer: The value was 1.6 fold.

Question: What about the “average slope of Hill plot” value ([1]; standard conditions) of the same compound?
Answer: The value was −2.0.

Question: And the “K2/K1 (sequential binding model)” value [1, 6]?
Answer: Its value is 0.4–0.8.

Question: And the “K3/K2 (sequential binding model)” value [1, 6]?
Answer: Its value is 40–250.

Question: Which “increase of inhibition potency” value ([1]; by 400 μM CTP) does the source give for `CN1C=CCC(C(N)=O)=C1` [1MDHN, 1-methyl 1,4-dihydronicotinamide] here?
Answer: Its value is “more than 2 fold”.

Question: And the “K2/K1 (sequential binding model)” value [1, 5]?
Answer: Its value is 4–40.

Question: What about the “K3/K2 (sequential binding model)” value [1, 5] of the same compound?
Answer: Its value is 0.2–0.8.

Question: What about the “IC50^ox/IC50^red” value [1] of the same compound?
Answer: The value was over 28.

Question: What about the IC50 [1, 7] of the same compound?
Answer: Its IC50 is 140 ± 10 µM.

Question: What does the source list for `NC(=O)CC[C@H](N)C(=O)O` [glutamine]?
Answer: Hill coeff, nH [1, 8]: 1.1 ± 0.1 (11); S0.5 [1, 8]: 360 ± 20^e μM

Question: For `NC(=O)c1ccc[n+]([C@@H]2O[C@H](COP(=O)([O-])OP(=O)(O)OC[C@H]3O[C@@H](n4cnc5c(N)ncnc54)[C@H](O)[C@@H]3O)[C@@H](O)[C@H]2O)c1` [NAD^+, nicotinamide adenine dinucleotide (oxidized)], which “fold less effective inhibition than NADH” value ([1]; standard conditions) is on record?
Answer: The value was ~ 3 fold.

Question: What about the IC50 [1, 7] of the same compound?
Answer: The IC50 was 1700 ± 70 µM.

Question: For `NC(=O)c1ccc[n+]([C@@H]2O[C@H](COP(=O)([O-])OP(=O)(O)OC[C@H]3O[C@@H](n4cnc5c(N)ncnc54)[C@H](OP(=O)(O)O)[C@@H]3O)[C@@H](O)[C@H]2O)c1` [NADP^+, nicotinamide adenine dinucleotide 2’-phosphate (oxidized)], which IC50 [1, 7] is on record?
Answer: The IC50 was 1280 ± 50 µM.

Question: Which results are given for `Nc1ncnc2c1ncn2[C@@H]1O[C@H](COP(=O)(O)OP(=O)(O)O)[C@@H](O)[C@H]1O` [ADP, adenosine 5’-diphosphate]?
Answer: inhibition at 3000 µM [1]: 35%; IC50 [1, 4]: ~4500 µM

Question: Which IC50 ([1]; 50 μM GTP, otherwise standard) does the source give for `NC(=O)C1=CN([C@@H]2O[C@H](COP(=O)(O)OP(=O)(O)OC[C@H]3O[C@@H](n4cnc5c(N)ncnc54)[C@H](O)[C@@H]3O)[C@@H](O)[C@H]2O)C=CC1` [NADH, 1,4 dihydronicotinamide adenine dinucleotide (reduced)] here?
Answer: Its IC50 is 770 ± 30 µM.

Question: And the “dependence of inhibition potency on enzyme concentration” value ([1]; Figure S4)?
Answer: Its value is “independent of enzyme concentration from 50 to 400 nM”.

Question: And the inhibition ([1]; at 1250 μM, standard conditions)?
Answer: Its inhibition is “greater than 95%”.

Question: And the “increase of inhibition potency” value ([1]; by 400 μM CTP)?
Answer: The value was ~ 2.1 fold.

Question: And the “K2/K1 (sequential binding model)” value [1, 5]?
Answer: The value was 4–40.

Question: And the “K3/K2 (sequential binding model)” value [1, 5]?
Answer: The value was 0.2–0.8.

Question: And the “IC50^ox/IC50^red” value [1]?
Answer: The value was 3.7.

Question: What about the IC50 [1, 7] of the same compound?
Answer: The IC50 was 470 ± 40 µM.

Question: What about the “K2/K1 (sequential binding model)” value [1, 6] of the same compound?
Answer: Its value is 0.4–0.8.

Question: What about the “K3/K2 (sequential binding model)” value [1, 6] of the same compound?
Answer: Its value is 40–250.

Question: What about the “dose–response of E277R compared with wild-type” value (E277R EcCTPS; 200 nM enzyme, 0–1500 μM NADH) of the same compound?
Answer: Its value is “no significant differences between wild-type and mutant”.

Question: What about the “effect on ammonia-dependent synthesis” value (EcCTPS) of the same compound?
Answer: Its value is “inhibits”.

Question: Which “Hill coeff, nH” value [1, 8] does the source give for `O=c1ccn([C@@H]2O[C@H](COP(=O)(O)OP(=O)(O)OP(=O)(O)O)[C@@H](O)[C@H]2O)c(=O)[nH]1` [UTP, uridine-5’- triphosphate] here?
Answer: The value was 1.3 ± 0.2.

Question: What about the S0.5 [1, 8] of the same compound?
Answer: Its S0.5 is 57 ± 8 µM.

Question: What about the “Hill coeff, nH” value ([1]; 150 μM ATP (subsaturating)) of the same compound?
Answer: The value was 1.8 ± 0.1 (6).

Question: And the S0.5 ([1]; 150 μM ATP (subsaturating))?
Answer: The S0.5 was 200 ± 40 µM.

Question: And the “Hill coeff, nH” value [1, 9]?
Answer: Its value is 1.4 ± 0.3 (23)^b.

Question: For `Nc1nc2c(ncn2[C@@H]2O[C@H](COP(=O)(O)OP(=O)(O)OP(=O)(O)O)[C@@H](O)[C@H]2O)c(=O)[nH]1` [GTP, guanosine-5’-triphosphate], which “kact (two-site activation/inhibition model)” value ([1]; 200 nM WT, no other inhibitor) is on record?
Answer: The value was 10.7 s⁻¹.

Question: What about the “ninh (two-site model)” value ([1]; 200 nM WT, no other inhibitor) of the same compound?
Answer: Its value is 4.7.

Question: And the “kact (two-site model)” value ([1]; 4 μM WT)?
Answer: Its value is 4.7 s⁻¹.

Question: What about the “ninh (two-site model)” value ([1]; 4 μM WT) of the same compound?
Answer: The value was 4.1.

Question: And the “enzyme concentration for 50% autoinhibition” value ([1]; 50 μM GTP)?
Answer: The value was 6.1 µM.

Question: What about the “apparent kcat at 2 μM EcCTPS” value ([1]; 50 μM GTP) of the same compound?
Answer: Its value is 2.9 s⁻¹.

Question: What about the “enzyme concentration for 50% autoinhibition” value ([1]; 200 μM GTP) of the same compound?
Answer: The value was 3.9 µM.

Question: What about the “apparent kcat at 2 μM EcCTPS” value ([1]; 200 μM GTP) of the same compound?
Answer: The value was 5.0 ± 0.1 s⁻¹.

Question: And the “enzyme concentration for 50% autoinhibition” value ([1]; 500 μM GTP)?
Answer: The value was 2.8 µM.

Question: And the “apparent kcat at 2 μM EcCTPS” value ([1]; 500 μM GTP)?
Answer: The value was 2.7 ± 1.0 s⁻¹.

Question: And the EC50 ([1]; 4 μM WT EcCTPS)?
Answer: Its EC50 is 27 ± 7 µM.

Question: And the EC50 ([1]; standard: 200 nM EcCTPS, 1.5 mM ATP, 600 μM UTP, 10 mM glutamine)?
Answer: The EC50 was ~38 µM and 38 µM.

Question: And the IC50 ([1]; IC50, 4 μM WT EcCTPS)?
Answer: Its IC50 is 455 ± 46 µM.

Question: And the IC50 [1, 4]?
Answer: Its IC50 is 540 ± 60 µM.

Question: What about the Ki ([1]; 200 nM WT, no other inhibitor) of the same compound?
Answer: The Ki was 301 µM.

Question: What about the Ki ([1]; 4 μM WT) of the same compound?
Answer: The Ki was 221 µM.

Question: What about the “optimal GTP concentration” value ([1]; in presence of 500 μM NADH) of the same compound?
Answer: The value was “approximately 100 μM”.

Question: And the “concentration of maximum activation” value ([1]; standard conditions)?
Answer: The value was ~ 200 μM.

Question: What about the IC50 [2] of the same compound?
Answer: Its IC50 is about 500 µM.

Question: And the EC50 (E277R EcCTPS)?
Answer: The EC50 was 46 ± 6 µM.

Question: And the IC50 (E277R EcCTPS)?
Answer: The IC50 was 697 ± 4 µM.

Question: What about the Ki (E277R EcCTPS) of the same compound?
Answer: Its Ki is 342 µM.

Question: What about the “kact (two-site model)” value (E277R EcCTPS; 200 nM E277R) of the same compound?
Answer: The value was 10.7 s⁻¹.

Question: What about the “ninh (two-site model)” value (E277R EcCTPS; 200 nM E277R) of the same compound?
Answer: The value was 3.8.

Question: And the “activation of glutamine hydrolysis” value [3]?
Answer: The value was “up to 50 fold”.

Question: Which results are given for `NC(=O)C1=CN([C@@H]2O[C@H](COP(=O)(O)OP(=O)(O)OC[C@H]3O[C@@H](n4cnc5c(N)ncnc54)[C@H](OP(=O)(O)O)[C@@H]3O)[C@@H](O)[C@H]2O)C=CC1` [NADPH, 1,4 dihydronicotinamide adenine dinucleotide 2’-phosphate (reduced)]?
Answer: IC50^ox/IC50^red [1]: 2.8; IC50 [1, 7]: 450 ± 20 µM

Question: What does the source list for `Nc1ncnc2c1ncn2[C@@H]1O[C@H](COP(=O)(O)OP(=O)(O)OP(=O)(O)O)[C@@H](O)[C@H]1O` [ATP, adenosine 5’-triphosphate]?
Answer: Hill coeff, nH [1, 8]: 1.7 ± 0.3; S0.5 [1, 8]: 126 ± 13 µM; S0.5 ([1]; 50 μM GTP): 81 ± 5 µM; Hill coeff, nH ([1]; 60 μM UTP): 1.9 ± 0.4 (5); S0.5 ([1]; 60 μM UTP): 310 ± 20 µM; S0.5 ([1]; 500 μM GTP): 155 ± 25 µM; Hill coeff, nH [1, 9]: 1.7 ± 0.2 (18)^c

Question: What does the source list for `C[n+]1cccc(C(N)=O)c1` [1MeN, 1-methylnicotinamide]?
Answer: inhibition at 3000 µM [1]: < 25%; IC50 [1, 4]: ~4000 µM

From article PMC5584805 (Biochemistry, 2016)
